The target in one data set is T1, renin (Homo sapiens, UniProt P00797).
T1 sequence (P00797 67-406): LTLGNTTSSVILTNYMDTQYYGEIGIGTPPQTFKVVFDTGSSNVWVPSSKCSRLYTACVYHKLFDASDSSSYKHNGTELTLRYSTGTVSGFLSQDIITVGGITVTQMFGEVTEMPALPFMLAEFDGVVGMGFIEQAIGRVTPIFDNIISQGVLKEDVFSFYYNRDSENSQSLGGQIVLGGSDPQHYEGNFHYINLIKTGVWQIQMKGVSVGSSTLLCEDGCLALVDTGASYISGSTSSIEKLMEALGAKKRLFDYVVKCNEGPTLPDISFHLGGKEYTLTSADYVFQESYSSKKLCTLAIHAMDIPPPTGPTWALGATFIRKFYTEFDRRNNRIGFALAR
Kind of data set: in vitro inhibition of renin, radio immunoassay detection of Angiotensin I from an angiotensinogen-like substrate. It counts as biochemical. To be noted: 10^-6 M concentration of test compound. From the text:
The potent in vitro inhibition of the aspartyl protease renin was established using standard radio immunoassay techniques for the detection of Angiotensin I from an angiotensinogen-like substrate [Haber et al. (1969), J. Clin. Endocrinol. 29, 1349]. The results of these standard test procedures appears at the end of each Example of preparation of the relevant compound, as the percent inhibition of renin activity at […] concentration of test compound. The compounds of this invention have also shown strong resistance to breakdown by degradative enzymes such as chymotrypsin, following the procedure of Thaisrivongs et al. (1987) J. Med. Chem. 30, 536-541. […] Even after a 24 hour incubation, 68% of the compound of Example 1 remained. In accord with their ability to inhibit the enzyme renin, the compounds of this invention show plasma renin lowering effects and an antihypertensive action in a furosemide-stimulated high-renin model [De […]. et al. (1985), J. Cardiovascular Pharmacology 7, (Suppl. 4), S58-S61] with conscious rhesus monkeys, utilizing intravenous as well as oral dosing. For example, the product of Example 1 administered at 5 mg/kg iv lowered plasma renin activity (PRA) from 45 ng/ml/min to 5 ng/ml/min one half hour post-administration. Mean arterial pressure (MAP) was lowered 25 mm in that time period.

A short description of data set [1]: resistance to breakdown on incubation with chymotrypsin. Type of data set: in vitro ADME. Conditions: read-out: remaining compound after incubation with chymotrypsin; for remaining at 1 h: incubation for one hour. From the text: The potent in vitro inhibition of the aspartyl protease renin was established using standard radio immunoassay techniques for the detection of Angiotensin I from an angiotensinogen-like substrate [Haber et al. (1969), J. Clin. Endocrinol. 29, 1349]. The results of these standard test procedures appears at the end of each Example of preparation of the relevant compound, as the percent inhibition of renin activity at […] concentration of test compound. The compounds of this invention have also shown strong resistance to breakdown by degradative enzymes such as chymotrypsin, following the procedure of Thaisrivongs et al. (1987) J. Med. Chem. 30, 536-541. For example, the compound of Example 1 was nearly unchanged upon incubation with chymotrypsin for one hour (93% remaining compound) whereas Boc-Phe Leu-ACHBA-OMe was extensively degraded (22% remaining compound) in the same time period. Even after a 24 hour incubation, 68% of the compound of Example 1 remained. In accord with their ability to inhibit the enzyme renin, the compounds of this invention show plasma renin lowering effects and an antihypertensive action in a furosemide-stimulated high-renin model [De Claviere, M. et al. (1985), J. Cardiovascular Pharmacology 7, (Suppl. 4), S58-S61] with conscious rhesus monkeys, utilizing intravenous as well as oral dosing. For example, the product of Example 1 administered at 5 mg/kg iv lowered plasma renin activity (PRA) from 45 ng/ml/min to 5 ng/ml/min one half hour post-administration. Mean arterial pressure (MAP) was lowered 25 mm in that time period.

Data set [2] has as its system conscious rhesus monkeys (furosemide-stimulated high-renin model). Kind of data set: furosemide-stimulated high-renin model with conscious rhesus monkeys. It counts as in vivo.
Where [3] appears, read: orally at 50 ng/kg, one-half hour post-administration.

Results on 17 molecules are retold here after patent US5023338A, “Renin inhibitors” (American Home Products Corporation, priority 1990, dated 1991).

Turning to `CC(C)C[C@H](NC(=O)[C@H](Cc1ccccc1)N1Cc2ccccc2C1=O)C(=O)NC(CC1CCCCC1)C(O)C(=O)OC(C)C` (single isomer, unassigned) [Example 2 Diastereomer A, Beta-[[2-[[2-[1,3-dihydro-1-oxo-2H-isoindol-2-yl]-1-oxo-3-phenylpropyl]amino]-4-methyl-1-oxo-pentyl]amino]-alpha-hydroxycyclohexanebutanoic acid 1-methylethyl ester], on renin, the “% I, percent inhibition of renin activity” value (from here on “% I, percent inhibition”) is given as 98%.

Usually fraction remaining stands for the share of the starting amount still present when the sample was taken. Turning to `COC(=O)C(O)C(CC1CCCCC1)NC(=O)[C@H](CC(C)C)NC(=O)[C@H](Cc1ccccc1)NC(=O)OC(C)(C)C` (stereo partly drawn) [Boc-Phe Leu-ACHBA-OMe, N-tertiary butyloxycarbonyl-Phe-Leu-3-amino-4-cyclohexyl-2-hydroxybutanoic acid methyl ester, reference compound], in data set [1], the amount remaining at 1 h came to 22%. Turning to `COC(=O)C(O)C(CC1CCCCC1)NC(=O)[C@H](CC(C)C)NC(=O)[C@H](Cc1ccccc1)N1Cc2ccccc2C1=O` (stereo partly drawn) [Example 1, Beta-[[2-[[2-[1,3-dihydro-1-oxo-2H-isoindol-2-yl]-1-oxo-3-phenylpropyl]amino]-4-methyl-1-oxo-pentyl]amino]-alpha-hydroxycyclohexanebutanoic acid methyl ester], the “% I, percent inhibition” value on renin worked out at 97%. Also, the amount remaining at 24 h in data set [1] (24 hour incubation) is 68%. Besides, the share remaining at 1 h in data set [1] turned out to be 93%. Besides, the “lowering of mean arterial pressure (MAP)” value in data set [2] (5 mg/kg iv, one half hour post-administration) is 25 mm. Also, in data set [2] (5 mg/kg iv, one half hour post-administration, lowered from 45 ng/ml/min), the “plasma renin activity (PRA) after administration” value was 5 ng/mL/min. Also, in data set [2] (setting [3]), the “change in MAP” value is reported as “no significant change” and the “decrease of PRA” value was 50%. In the case of `COC(=O)C(O)C(CC1CCCCC1)NC(=O)[C@H](CC(C)C)NC(=O)[C@H](Cc1ccccc1)N1Cc2ncccc2C1=O` (stereo partly drawn) [Example 3, Beta-[[2-[[-2-(1,3-dihydro-1-oxo-2H-pyrrolo[3,4-b]pyridin-2-yl)-1-oxo-3-phenylpropyl]amino]-4-methyl-1-oxopentyl]amino]-alpha-hydroxycyclohexanebutanoic acid methyl ester], the “% I, percent inhibition” value at renin was determined as 89%.

For the molecule `COC(=O)C(O)C(CC1CCCCC1)NC(=O)[C@H](Cc1c[nH]cn1)NC(=O)[C@H](Cc1ccccc1)N1Cc2ccccc2C1=O` (stereo partly drawn) [Example 4, Beta-[[2-[[2-(1,3-dihydro-1-oxo-2H-isoindol-2-yl)-1-oxo-3-phenylpropyl]amino]-3-(1H-imidazol-4-yl)-1-oxopropyl]amino]-alpha-hydroxycyclohexane butanoic acid methyl ester], the “% I, percent inhibition” value on renin is recorded as 84%. `CC(C)OC(=O)C(O)C(CC1CCCCC1)NC(=O)[C@H](Cc1c[nH]cn1)NC(=O)[C@H](Cc1ccccc1)N1Cc2ccccc2C1=O` (stereo partly drawn) [Example 5, Beta-[[2-[[2-(1,3-dihydro-1-oxo-2H-isoindol-2-yl)-1-oxo-3-phenylpropyl]amino]-3-(1H-imidazol-4-yl)-1-oxopropyl]amino]-alphahydroxycyclohexanebutanoic acid 1-methylethyl ester]: on renin, the “% I, percent inhibition” value turned out to be 83%.

Turning to `COC(=O)C(O)C(CC1CCCCC1)NC(=O)[C@H](CC(C)C)NC(=O)[C@H](Cc1ccccc1)N1C(=O)c2ccccc2C1=O` (stereo partly drawn) [Example 6, Beta-[[2-[[2-(1,3-dihydro-1,3-dioxo-2H-isoindol-2-yl)-1-oxo-3-phenylpropyl]amino]-4-methyl-1-oxopentyl]amino]-alphahydroxycyclohexanebutanoic acid methyl ester], at renin, the “% I, percent inhibition” value was 45%.

As to `COC(=O)C(O)C(CC1CCCCC1)NC(=O)[C@H](Cc1c[nH]cn1)NC(=O)[C@H](Cc1ccccc1)N1C(=O)c2ccccc2C1=O` (stereo partly drawn) [Example 7, Beta-[[2-[[2-(1,3-dihydro-1,3-dioxo-2H-isoindol-2-yl)-1-oxo-3-phenylpropyl]amino]-3-(1H-imidazol-4-yl)-1-oxopropyl]amino]-alphahydroxycyclohexanebutanoic acid methyl ester], the “% I, percent inhibition” value at renin is on record as 9%. On the same count and under the same terms, with `COC(=O)C(O)C(CC1CCCCC1)NC(=O)[C@H](CC(C)C)NC(=O)[C@H](Cc1ccccc1)N1C(=O)c2cccc3cccc(c23)C1=O` (some centres unmarked) [Example 8] the figure was 74%; with `COC(=O)C(O)C(CC1CCCCC1)NC(=O)[C@H](CC(C)C)NC(=O)[C@H](Cc1ccccc1)N1C(=O)OC(C)(C)C1C` (stereo partly drawn) [Example 9, Beta-[[2-[[2-[4,5,5-trimethyl-2-oxo-3-oxazolidinyl]-1-oxo-3-phenylpropyl]amino]-4-methyl-1-oxo-pentyl]amino]-alphahydroxycyclohexanebutanoic acid methyl ester], 76%. On to `COC(=O)C(O)C(CC1CCCCC1)NC(=O)[C@H](CC(C)C)NC(=O)[C@H](Cc1ccccc1)N1CC(C)(C)OC1=O` (stereo partly drawn) [Example 10, Beta-[[2-[[2-[5,5-dimethyl-2-oxo-3-oxazolidinyl]-1-oxo-3-phenylpropyl]amino]-4-methyl-1-oxo-pentyl]amino]-alphahydroxycyclohexanebutanoic acid methyl ester], for which the “% I, percent inhibition” value on renin is on record as 86%. For the molecule `CCC[C@H](NC(=O)[C@H](Cc1ccccc1)N1Cc2ccccc2C1=O)C(=O)NC(CC1CCCCC1)C(O)C(=O)OC(C)C` (stereo partly drawn) [Example 11, Beta-[[2-[[2-[1,3-dihydro-1-oxo-2H-isoindol-2-yl]-1-oxo-3-phenylpropyl]amino]-1-oxo-pentyl]amino]-alphahydroxycyclohexanebutanoic acid 1-methylethyl ester], the “% I, percent inhibition” value at renin is on record as 99%.

Take `CCCC[C@H](NC(=O)[C@H](Cc1ccccc1)N1Cc2ccccc2C1=O)C(=O)NC(CC1CCCCC1)C(O)C(=O)OC(C)C` (stereo partly drawn) [Example 12, Beta-[[2-[[2-[1,3-dihydro-1-oxo-2H-isoindol-2-yl]-1-oxo-3-phenylpropyl]amino]-1-oxo-hexyl]amino]-alphahydroxycyclohexanebutanoic acid 1-methylethyl ester]: at renin, the “% I, percent inhibition” value was 99%. Same read-out and setting: as for `CC(C)C[C@H](NC(=O)[C@H](Cc1ccccc1)N1Cc2cccc3cccc(c23)C1=O)C(=O)NC(CC1CCCCC1)C(O)C(=O)OC(C)C` (stereo partly drawn) [Example 13, Beta-[[2-[[2-[1,3-dihydro-1-oxo-2H-benzisoquinolin-2-yl]-1-oxo-3-phenylpropyl]amino]-4-methyl-1-oxo-pentyl]amino]-alphahydroxycyclohexanebutanoic acid 1-methylethyl ester], the figure is 92%. For `CC(C)C[C@H](NC(=O)[C@H](Cc1ccccc1)N1CCCC1=O)C(=O)NC(CC1CCCCC1)C(O)C(=O)OC(C)C` (stereo partly drawn) [Example 14, Beta-[[2-[[2-[2-oxo-1-pyrrolidinyl]-1-oxo-3-phenylpropyl]amino]-4-methyl-1-oxo-pentyl]amino]-alpha-hydroxycyclohexanebutanoic acid 1-methylethyl ester], at renin, the “% I, percent inhibition” value is given as 93%. Take `CC(C)C[C@H](NC(=O)[C@H](Cc1ccccc1)N1C[C@@H]2CCCN2C1=O)C(=O)NC(CC1CCCCC1)C(O)C(=O)OC(C)C` (stereo partly drawn) [Example 16, Beta-[[2-[[2-[(7aS)-tetrahydro-3-oxo-1H-pyrrolo[1,2-c]imidazol-2(3H)-yl]-1-oxo-3-phenylpropyl]amino]-4-methyl-1-oxo-pentyl]amino]-alpha-hydroxycyclohexanebutanoic acid 1-methylethyl ester]: the “% I, percent inhibition” value at renin is recorded as 91%. Still for that read-out and setting: as for “Beta-[[2-[[2-[5-oxo-5H-imidazo[1,2-a]imidazol-6(7H)-yl]-1-oxo-3-phenylpropyl]amino]-4-methyl-1-oxo-pentyl]amino]-alpha-hydroxycyclohexanebutanoic acid 1-methylethyl ester [Example 15]”, the figure is 96%.
